Reference: ChEMBL document CHEMBL1201862, “PubChem BioAssay data set” (2004)
Activity calls are given as the source filed them.

Legend:
X-box-binding protein 1 = X-box-binding protein 1 (Homo sapiens, UniProt P17861); format: functional, Cricetulus griseus;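 note: confirmatory dose-response counter-screen serving a CHOP assay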
[1] = target: T1, Dual specificity protein phosphatase 6 (Rattus norvegicus, UniProt Q64346); format: functional;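 note: confirmatory in vitro dose-response testing of MKP-3 inhibition; recombinant His-tagged MKP-3 made in E. coli BL21 with OMFP substrate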
T1 sequence (Q64346 whole entry): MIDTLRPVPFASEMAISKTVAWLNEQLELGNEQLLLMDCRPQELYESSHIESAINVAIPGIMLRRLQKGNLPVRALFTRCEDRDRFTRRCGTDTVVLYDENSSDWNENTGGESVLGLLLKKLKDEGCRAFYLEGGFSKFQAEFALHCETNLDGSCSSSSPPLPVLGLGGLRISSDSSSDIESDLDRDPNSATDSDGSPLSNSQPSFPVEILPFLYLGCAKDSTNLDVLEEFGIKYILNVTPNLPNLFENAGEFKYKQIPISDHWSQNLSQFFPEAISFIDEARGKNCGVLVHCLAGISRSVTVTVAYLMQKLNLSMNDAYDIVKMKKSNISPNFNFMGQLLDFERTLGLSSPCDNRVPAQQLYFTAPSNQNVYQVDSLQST

[2] = target: T2, Dual specificity protein phosphatase 3 (Homo sapiens, UniProt P51452); test: SAR VHR1 absorbance Assay for In Vitro dose response studies. [Related pubchem assays (depositor defined):AID1654, AID1661, AID1878, AID1992, AID2004]
T2 sequence (P51452 whole entry): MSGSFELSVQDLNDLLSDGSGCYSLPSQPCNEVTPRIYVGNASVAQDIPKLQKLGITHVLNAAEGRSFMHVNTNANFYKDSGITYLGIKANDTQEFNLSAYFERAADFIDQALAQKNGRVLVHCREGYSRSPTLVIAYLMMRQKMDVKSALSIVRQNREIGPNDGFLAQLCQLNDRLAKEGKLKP

[3] = target: T2, Dual specificity protein phosphatase 3; test: SAR VHR1 Fluorescent Assay for In Vitro dose response studies. [Related pubchem assays (depositor defined):AID1654, AID1661, AID1878, AID1992, AID2004, AID2070, AID2085]; format: functional
[4] = target: T3, Tyrosine-protein phosphatase non-receptor type 7 (Homo sapiens, UniProt P35236); test: redox-active compounds inhibiting HePTP phosphatase – biochemical, fluorescence, mechanism study (AID 2068); format: functional
T3 sequence (P35236 whole entry): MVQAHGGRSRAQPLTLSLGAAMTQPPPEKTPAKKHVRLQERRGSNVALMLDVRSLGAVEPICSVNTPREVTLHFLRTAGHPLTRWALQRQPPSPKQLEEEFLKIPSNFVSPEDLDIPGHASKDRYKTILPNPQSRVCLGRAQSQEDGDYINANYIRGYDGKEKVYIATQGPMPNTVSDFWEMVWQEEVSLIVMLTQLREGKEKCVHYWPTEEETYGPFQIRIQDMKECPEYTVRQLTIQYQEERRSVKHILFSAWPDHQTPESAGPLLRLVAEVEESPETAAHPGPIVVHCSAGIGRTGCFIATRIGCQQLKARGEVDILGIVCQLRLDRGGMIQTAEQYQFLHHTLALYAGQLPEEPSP

[5] = target: Metabotropic glutamate receptor 4 (Rattus norvegicus, UniProt P31423); test: Modulation of the Metabotropic Glutamate Receptor mGluR4: Rat PAM Potency. [Related pubchem assays (depositor defined):AID2437, AID2807]; format: functional
Metabotropic glutamate receptor 4 (Rattus norvegicus, UniProt P31423), sequence (P31423 whole entry): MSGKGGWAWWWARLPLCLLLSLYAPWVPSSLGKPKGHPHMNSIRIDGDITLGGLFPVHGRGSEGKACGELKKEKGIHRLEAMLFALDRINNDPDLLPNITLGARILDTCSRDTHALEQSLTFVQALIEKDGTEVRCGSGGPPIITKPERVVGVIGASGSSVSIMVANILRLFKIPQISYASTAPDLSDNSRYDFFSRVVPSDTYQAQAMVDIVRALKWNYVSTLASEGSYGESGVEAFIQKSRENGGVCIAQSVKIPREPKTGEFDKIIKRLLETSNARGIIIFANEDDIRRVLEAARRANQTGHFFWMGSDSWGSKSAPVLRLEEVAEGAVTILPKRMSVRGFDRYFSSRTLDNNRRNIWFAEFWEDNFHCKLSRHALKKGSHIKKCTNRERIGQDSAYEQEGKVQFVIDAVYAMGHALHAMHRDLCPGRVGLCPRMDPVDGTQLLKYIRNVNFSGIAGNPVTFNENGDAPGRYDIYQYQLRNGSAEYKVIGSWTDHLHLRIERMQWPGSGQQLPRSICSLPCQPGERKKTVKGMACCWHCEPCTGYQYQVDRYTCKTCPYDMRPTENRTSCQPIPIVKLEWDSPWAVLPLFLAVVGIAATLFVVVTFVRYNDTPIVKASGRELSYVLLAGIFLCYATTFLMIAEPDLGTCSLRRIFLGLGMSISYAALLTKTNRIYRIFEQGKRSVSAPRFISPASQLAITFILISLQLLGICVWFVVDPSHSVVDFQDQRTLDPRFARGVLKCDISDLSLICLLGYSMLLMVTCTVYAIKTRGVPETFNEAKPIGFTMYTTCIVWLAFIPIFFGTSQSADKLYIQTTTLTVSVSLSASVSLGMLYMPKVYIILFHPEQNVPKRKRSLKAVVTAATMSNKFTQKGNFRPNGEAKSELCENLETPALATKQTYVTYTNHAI

[6] = target: Metabotropic glutamate receptor 4 (Homo sapiens, UniProt Q14833); test: Modulation of the Metabotropic Glutamate Receptor mGluR4: Potency at human mGluR4. Modulation of intracellular Ca2+ using Fluo-4, AM, in CHO expressing recombinant receptor [Related pubchem assays (depositor defined):AID2437, AID2807]; format: functional, cell-based
Metabotropic glutamate receptor 4 (Homo sapiens, UniProt Q14833), sequence (Q14833 whole entry): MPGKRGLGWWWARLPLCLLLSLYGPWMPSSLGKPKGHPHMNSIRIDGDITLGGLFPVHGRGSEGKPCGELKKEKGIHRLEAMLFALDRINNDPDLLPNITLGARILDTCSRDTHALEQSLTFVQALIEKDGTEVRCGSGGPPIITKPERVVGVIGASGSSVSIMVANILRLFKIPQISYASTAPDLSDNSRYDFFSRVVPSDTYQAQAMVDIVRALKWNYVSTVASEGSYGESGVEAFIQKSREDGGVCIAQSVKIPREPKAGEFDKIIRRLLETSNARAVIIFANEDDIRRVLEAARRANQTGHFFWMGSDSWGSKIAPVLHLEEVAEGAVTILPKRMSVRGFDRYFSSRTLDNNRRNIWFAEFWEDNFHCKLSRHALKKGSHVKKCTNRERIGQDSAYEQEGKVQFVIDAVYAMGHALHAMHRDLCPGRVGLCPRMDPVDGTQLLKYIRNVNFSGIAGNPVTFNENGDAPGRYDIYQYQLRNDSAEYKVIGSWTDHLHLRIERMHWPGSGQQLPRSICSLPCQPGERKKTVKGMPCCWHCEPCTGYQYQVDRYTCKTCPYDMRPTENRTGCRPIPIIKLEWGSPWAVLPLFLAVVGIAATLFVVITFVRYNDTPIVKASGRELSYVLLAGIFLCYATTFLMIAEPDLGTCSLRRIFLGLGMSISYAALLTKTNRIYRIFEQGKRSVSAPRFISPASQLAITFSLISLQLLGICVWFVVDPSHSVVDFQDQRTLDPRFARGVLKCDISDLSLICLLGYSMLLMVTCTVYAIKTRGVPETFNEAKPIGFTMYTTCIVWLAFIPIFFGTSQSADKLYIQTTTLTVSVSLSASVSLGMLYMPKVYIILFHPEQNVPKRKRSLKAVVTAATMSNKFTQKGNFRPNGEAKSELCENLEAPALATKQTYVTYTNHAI

[7] = target: Neuropeptides B/W receptor type 1 (Homo sapiens, UniProt P48145); test: human NPBW1 receptor blockade, IC50 – cell-based, fluorescence, dose response, late-stage follow-up (AID 463251); format: functional
Neuropeptides B/W receptor type 1, sequence (P48145 whole entry): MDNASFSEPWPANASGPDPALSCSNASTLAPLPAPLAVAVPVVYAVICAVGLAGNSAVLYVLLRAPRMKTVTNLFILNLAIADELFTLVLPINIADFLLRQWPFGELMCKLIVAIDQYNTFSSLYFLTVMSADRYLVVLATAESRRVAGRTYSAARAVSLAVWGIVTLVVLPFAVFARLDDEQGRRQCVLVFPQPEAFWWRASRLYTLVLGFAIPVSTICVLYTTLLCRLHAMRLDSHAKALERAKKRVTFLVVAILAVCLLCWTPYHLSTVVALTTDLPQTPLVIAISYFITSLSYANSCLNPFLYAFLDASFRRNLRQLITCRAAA

[8] = target: Melanin-concentrating hormone receptor 1 (Homo sapiens, UniProt Q99705); test: Late-stage fluorescence-based counterscreen for antagonists of the G-protein coupled receptor 7 (GPR7): cell-based dose response assay to identify antagonists of the melanin-concentrating hormone receptor 1 (MCHR1). [Related pubchem assays (depositor defined):AID1861, AID1880, AID1952, AID2148, AID2251, AID2257, AID485339]; format: functional;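 note: stimulated with 30 nM MCH peptide agonist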
Melanin-concentrating hormone receptor 1, sequence (Q99705 whole entry): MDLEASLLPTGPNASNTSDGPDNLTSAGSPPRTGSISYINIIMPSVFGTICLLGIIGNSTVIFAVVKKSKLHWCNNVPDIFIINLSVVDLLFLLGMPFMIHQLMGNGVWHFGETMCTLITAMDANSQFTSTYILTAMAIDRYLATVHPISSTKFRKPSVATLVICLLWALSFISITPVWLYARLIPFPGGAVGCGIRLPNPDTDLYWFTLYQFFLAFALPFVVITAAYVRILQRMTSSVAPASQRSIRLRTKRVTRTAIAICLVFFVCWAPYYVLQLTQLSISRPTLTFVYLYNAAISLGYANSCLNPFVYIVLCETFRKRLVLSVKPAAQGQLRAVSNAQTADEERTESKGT

[9] = target: Multidrug resistance protein CDR1 (Candida albicans, UniProt P43071); test: inhibition of Nile Red efflux via Candida CDR1 – S. cerevisiae AD1-8u, singleplex, Cherry Pick1 hits, dose response (AID 588606); format: functional
[10] = target: NACHT, LRR and PYD domains-containing protein 3 (Homo sapiens, UniProt Q96P20); test: NALP3 inhibitors in yeast, dose response, luminescent (AID 488799); format: functional
NACHT, LRR and PYD domains-containing protein 3, sequence (Q96P20 whole entry, the tested form may be a part): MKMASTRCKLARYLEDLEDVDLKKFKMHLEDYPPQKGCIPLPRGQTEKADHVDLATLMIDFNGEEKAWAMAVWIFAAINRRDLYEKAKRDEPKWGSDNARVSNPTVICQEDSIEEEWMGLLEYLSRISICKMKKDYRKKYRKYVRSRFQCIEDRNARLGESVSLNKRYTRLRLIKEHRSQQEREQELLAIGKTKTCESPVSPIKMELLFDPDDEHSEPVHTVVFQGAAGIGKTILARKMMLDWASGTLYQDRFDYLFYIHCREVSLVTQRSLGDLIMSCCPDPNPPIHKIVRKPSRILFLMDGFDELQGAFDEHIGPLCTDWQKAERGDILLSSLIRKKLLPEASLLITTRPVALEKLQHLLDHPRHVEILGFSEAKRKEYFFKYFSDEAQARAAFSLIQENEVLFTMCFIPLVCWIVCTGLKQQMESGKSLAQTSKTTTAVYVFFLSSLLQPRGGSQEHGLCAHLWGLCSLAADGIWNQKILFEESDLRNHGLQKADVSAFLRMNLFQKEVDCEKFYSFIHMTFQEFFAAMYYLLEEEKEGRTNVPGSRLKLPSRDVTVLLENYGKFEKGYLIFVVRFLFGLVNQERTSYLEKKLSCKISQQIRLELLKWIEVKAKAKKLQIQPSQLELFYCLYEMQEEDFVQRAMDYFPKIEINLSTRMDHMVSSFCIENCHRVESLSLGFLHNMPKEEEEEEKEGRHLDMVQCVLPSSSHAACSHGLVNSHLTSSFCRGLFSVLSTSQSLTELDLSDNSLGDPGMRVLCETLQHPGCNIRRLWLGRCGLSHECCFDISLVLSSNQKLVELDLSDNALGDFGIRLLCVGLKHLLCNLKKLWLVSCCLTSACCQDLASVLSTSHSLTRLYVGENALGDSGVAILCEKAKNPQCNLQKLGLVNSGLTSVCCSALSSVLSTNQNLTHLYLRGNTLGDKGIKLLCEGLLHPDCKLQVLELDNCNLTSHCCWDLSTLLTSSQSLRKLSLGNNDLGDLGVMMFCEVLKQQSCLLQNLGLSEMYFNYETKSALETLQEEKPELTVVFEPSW

X-box-binding protein 1, sequence (P17861 whole entry): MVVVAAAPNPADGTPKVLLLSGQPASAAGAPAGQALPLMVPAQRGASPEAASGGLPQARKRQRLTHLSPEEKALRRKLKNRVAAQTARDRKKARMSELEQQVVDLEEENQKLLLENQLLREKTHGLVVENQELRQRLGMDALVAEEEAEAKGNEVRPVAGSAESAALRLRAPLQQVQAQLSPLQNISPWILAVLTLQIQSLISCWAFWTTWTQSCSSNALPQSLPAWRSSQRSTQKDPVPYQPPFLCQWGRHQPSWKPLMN

Cc1ccc(-c2ccc(/C=C(\C#N)C(=O)Nc3cc(C)nn3-c3ccccc3)o2)cc1
Absolute IC50 (XBP1) (X-box-binding protein 1): 10 µM

S=C(NCc1ccccc1)c1cn(CCOc2ccccc2)c2ccccc12
IC50 [1]: > 100 µM (inactive) | IC50 [2]: > 100 µM (inactive) | IC50 [3]: > 100 µM (inactive) | IC50 [4]: > 100 µM (inactive)

CC1(C)CC(=O)N(c2ccc(NC(=O)c3ccccn3)cc2Cl)C1=O
EC50 [5]: 2.32 µM (active) | EC50 [6]: 1.48 µM (active)

CC(=O)OCc1ccc(Oc2c(Cl)cnn(-c3ccc(C(C)C)cc3)c2=O)cc1
IC50 [7]: 1.6 µM (active) | IC50 [8]: 3.5 µM (active)

CCC1Nc2ncnc(N3CCN(c4ccccn4)CC3)c2N(Cc2ccc(Br)cc2)C1=O (stereo unspecified)
EC50 [9]: 12.4 µM (active) | IC50 [10]: 3.71 µM (active)
